This is an account of results in patent US10610590B2, “Electrochemical plasma activated aqueous chemotherapeutics” (Symbios Technologies, Inc., priority 2016, dated 2020).

For this experiment, the system named is MIA PaCa-2 cells. The experiment in a line: Alamar blue cell proliferation assay, pancreatic cancer cells. Format: cell-based, human. Particulars: carboplatin 0.2, 1, 2.5, 5 and 10 μg/mL, 72 h incubation. The text has this:
All lines used were adherent human cell lines. • (i) Pancreatic cancer cell line: MIA PaCa-2 • Source: Available from ATCC (ATCC® CRL1420™) • Complete growth medium: Eagle's Minimum Essential Medium containing 5% fetal bovine serum and 5% cosmic calf serum • (ii) Human umbilical vein endothelial cells: HUVEC • Source: Available from ATCC (ATCC® PCS-100-010™) or Lonza (single or pooled donor) • Complete growth medium: EGM-2 BulletKit (Lonza) • (iii) Human foreskin fibroblasts: HFF-1 • Source: Available from ATCC (ATCC® SCRC-1041™) • Complete growth medium: Dulbecco's Modified Eagle's Medium containing 15% fetal bovine serum • (iv) Immortalized pancreas duct epithelial-like cells: hTERT-HPNE • Source: Available from ATCC (ATCC® CRL4023™) • Complete growth medium: Specialty Dulbecco's Modified Eagle's Medium composition, protocol available from ATCC • (v) Primary pancreatic stellate cells: Panc stellate • Source: Available from Applied Biological Materials (T4215) • Complete growth medium: Prigrow I containing 10% fetal bovine serum.
Each cell line was adherent in a growth flask, incubated at 37° C. and 5% CO2; de-attached cell from growth flask using Trypsin-EDTA solution (0.25% Trypsin, 0.53 mM EDTA); and counted by Trypan blue staining standard protocol. […]
A standard cell proliferation assay was used, the Alamar blue assay, to assess quantification of viable cells. […]
In general terms: The colour change of resazurin is a common sign of viable cells or microbes.

On to `N.N.O=C([O-])C1(C(=O)[O-])CCC1.[Pt+2]` [carboplatin], for which the “human pancreatic cancer cell proliferation (positive control)” value is listed as “dose dependent cell growth inhibition”.
